Measured values published in patent US9006181B2 (The Administrators of the Tulane Educational Fund, priority 2004, dated 2015).
Values joined by “and” are separate entries in the source; they are usually repeats but may differ in a detail not shown here. Equal entries are not always repeated. “Also recorded” adds a separate entry of the source. Where no end group is shown, it is not given here.

Assays:
[1] = system: TNF-α production by human proximal tubule cells; assay: LC-induced TNF-α production by renal tubule cells, ELISA; assay type: cell-based
Procedure: TNF-α concentrations were determined by ELISA.
Varying doses of dexamethasone, PACAP38, MAPK kinase inhibitor (U0126), or PDTC were added to renal tubule cell cultures along with 50 μM LC to determine the effects on LC-induced TNF-α production, as measured by ELISA (FIG. 4).

[2] = system: p38 MAPK in human proximal tubule cells; assay: LC-induced p38 MAPK activation, ELISA for phosphorylated p38 MAPK; assay type: cell-based
Source text: Cytokine production may depend upon activation (phosphorylation) of p38 MAP kinase (stress-activated protein kinase 2a) isoforms.

[3] = system: IL-6 production by human proximal tubule cells; assay: LC-induced IL6 production by renal tubule cells, ELISA; assay type: cell-based; details: for magnitude of IL6 suppression compared with dexamethasone and SB202190: 10^−9 M PACAP vs 10^−9 M dexamethasone or 10 μM SB202190
Procedure: The overproduction of IL6 by neoplastic cells is strongly associated with the growth of multiple myeloma. Kawano M, et al. Nature. 332: 83 (1988). Varying doses of PACAP38, dexamethasone, or p38 MAPK kinase inhibitor (SB202190) were added to renal tubule cell cultures along with 50 μM LC to determine the effects on LC-induced IL6 production, as measured by ELISA (FIG. 11).

[4] = system: ERK1/2 in human proximal tubule cells; assay: LC-induced activation of ERK1/2, phospho-ERK1/2 ELISA; assay type: cell-based; details: dexamethasone 10^−7 M, PACAP38 10^−9 M; 50 μM LC, 3 days
Procedure: The ERK-type MAP kinases (ERK1 and ERK2 or, collectively, ERK1/2) are activated by phosphorylation. Evidence of such activation is visualized by antibody detection techniques, using antibody specific for the phosphorylated forms of ERK1/2. […] ERK1/2 activation was determined by ELISA.

[5] = system: NFκB p50 subunit in human proximal tubule cells; assay: LC-induced activation of NFκB p50 subunit, ELISA; assay type: cell-based; details: dexamethasone 10^−7 M, PACAP38 10^−9 M; 50 μM LC, 3 days
Procedure: Human renal tubule cells in vitro were incubated with 50 μM LC for 3 days in the presence or absence of dexamethasone or PACAP38, and assayed by ELISA for activation of NFκB subunits (FIGS. 6 & 7). […] A human Raji cell line (B lymphocyte, Burkitt's lymphoma) was used for positive controls.

[6] = system: NCI-H929 human myeloma cell line; assay: Myeloma cell growth, colorimetric BrdU incorporation; assay type: cell-based
Procedure: A human myeloma cell line (NCI-H929), which produced the lambda (λ) light chains used supra, were grown for 3 days in media containing non-inactivated media, and in the presence or absence of dexamethasone or PACAP38 (FIG. 8). Cell growth was determined by a colorimetric assay that measured the degree of 5-bromo-2-deoxyuridine (BrdU) incorporation by the cells. […] The therapeutic actions of dexamethasone in the treatment of multiple myeloma are attributed to stimulation of apoptosis.

[7] = system: SV40-immortalized human renal proximal tubule cell cultures; assay: Immunoglobulin light chain (LC)-induced damage of human renal tubule cells: morphology and survival
Procedure: SV40-immortalized human renal proximal tubule cell cultures were incubated with immunoglobulin light chains (LC) at 50 μM for 3 days (FIG. 2).

[8] = molecular target: T1, PAC1-R (type I PACAP receptor) (Homo sapiens, UniProt P41586); details: cited from earlier work
T1 sequence (P41586 21-468): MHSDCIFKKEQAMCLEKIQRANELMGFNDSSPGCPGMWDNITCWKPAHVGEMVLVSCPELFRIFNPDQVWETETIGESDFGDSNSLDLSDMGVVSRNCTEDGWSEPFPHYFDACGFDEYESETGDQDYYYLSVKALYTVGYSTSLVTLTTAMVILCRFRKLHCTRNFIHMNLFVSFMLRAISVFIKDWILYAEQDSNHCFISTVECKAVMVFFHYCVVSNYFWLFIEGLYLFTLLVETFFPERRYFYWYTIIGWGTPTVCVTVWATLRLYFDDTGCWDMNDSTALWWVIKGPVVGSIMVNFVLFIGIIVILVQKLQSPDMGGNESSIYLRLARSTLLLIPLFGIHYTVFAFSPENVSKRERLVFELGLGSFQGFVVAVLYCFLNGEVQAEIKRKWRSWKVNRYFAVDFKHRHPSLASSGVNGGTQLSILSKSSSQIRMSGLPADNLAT

**Q.** Which “suppression of LC-induced TNF-α production” value ([1]; PDTC 0.125 μM and 12.5 μM, both levels) does the source give for `S=C(S)N1CCCC1` [PDTC, pyrrolidine dithiocarbamate, reference compound] here?
**A.** completely suppressed

**Q.** Which “reduction of p38 MAPK activation” value ([2]; SB202190 10 μM) does the source give for `Oc1ccc(-c2nc(-c3ccncc3)c(-c3ccc(F)cc3)[nH]2)cc1` [SB202190, reference compound] here?
**A.** reduction produced by 10 μM SB202190

**Q.** With `N#CC(=C(/N)Sc1ccccc1N)/C(C#N)=C(\N)Sc1ccccc1N` [U0126, reference compound] as the compound, how does the “suppression of LC-induced TNF-α production” value ([1]; U0126 high dose) read?
**A.** completely suppressed

**Q.** With `C[C@@H]1C[C@H]2[C@@H]3CCC4=CC(=O)C=C[C@]4(C)[C@@]3(F)[C@@H](O)C[C@]2(C)[C@@]1(O)C(=O)CO` [dexamethasone, reference compound] as the compound, how does the “concentration achieving maximal suppression of TNF-α production” value ([1]; 50 μM LC) read?
**A.** 10^−5 M

**Q.** And the “concentration giving comparable magnitude of TNF-α suppression (dexamethasone vs PACAP38)” value ([1]; 50 μM LC)?
**A.** 10^−9 M

**Q.** And the “concentrations showing comparable activity in suppressing LC-induced TNF-α production (pair used in FIGS. 5-7)” value ([1]; 50 μM LC)?
**A.** 10^−7 M

**Q.** Which “magnitude of IL6 suppression compared with dexamethasone and SB202190” value [3] does the source give for “PACAP: pituitary adenylate cyclase activating polypeptide; exists as PACAP38 and PACAP27; in Example 8 stands for PACAP38” here?
**A.** greater than that observed with either 10^−9 M dexamethasone or 10 μM SB202190

**Q.** Which “concentration achieving maximal suppression of TNF-α production” value ([1]; 50 μM LC) does the source give for “PACAP[1-38]-NH2 (HSDGIFTDSYSRYRKQMAVKKYLAAVLGKRYKQRVKNK-NH2) [PACAP38]” here?
**A.** 10^−9 M and 10^−7 M

**Q.** What about the “concentration giving comparable magnitude of TNF-α suppression (dexamethasone vs PACAP38)” value ([1]; 50 μM LC) of the same compound?
**A.** 10^−13 M

**Q.** What about the “concentrations showing comparable activity in suppressing LC-induced TNF-α production (pair used in FIGS. 5-7)” value ([1]; 50 μM LC) of the same compound?
**A.** 10^−9 M

**Q.** And the “suppression of LC-induced TNF-α production at a single concentration” value ([1]; PACAP38 10^−9 M)?
**A.** dramatic suppression

**Q.** What about the “suppression of LC-induced TNF-α production” value ([1]; varying doses, 50 μM LC, 72 hours) of the same compound?
**A.** suppressed by both dexamethasone and PACAP38 in a dose-dependent manner

**Q.** What about the “suppression of LC-induced ERK1/2 activation” value [4] of the same compound?
**A.** Neither dexamethasone nor PACAP38 suppressed ERK1/2 MAPK activation; also recorded: the difference was not statistically significant; also recorded: neither dexamethasone nor PACAP38 suppressed light chain-induced ERK1/2 activation significantly

**Q.** And the “suppression of LC-induced NFκB p50 subunit activation” value [5]?
**A.** significantly suppressed NFκB p50 activation; also recorded: suppressed by both dexamethasone and PACAP38

**Q.** And the “concentration of maximal suppression of tumor cell growth” value ([6]; 3 days)?
**A.** 10^−7 M

**Q.** What about the “lowest concentration at which tumor cell growth tended to be suppressed” value ([6]; 3 days) of the same compound?
**A.** 10^−13 M

**Q.** What about the “suppression of myeloma cell growth” value ([6]; 3 days, media with non-inactivated serum) of the same compound?
**A.** suppressed growth of myeloma cells in cultures with approximately the same efficacy; also recorded: suppressed cell growth significantly; also recorded: dose-dependent suppression of myeloma cell growth at concentrations significantly lower than dexamethasone

**Q.** And the “growth suppressed at levels as low as” value ([6]; media containing non-inactivated serum)?
**A.** 10^−11 M

**Q.** And the “magnitude of IL6 suppression compared with dexamethasone and SB202190” value [3]?
**A.** significantly more effective at suppressing IL-6 production than dexamethasone

**Q.** What about the “suppression of LC-stimulated IL6 production” value ([3]; varying doses, 50 μM LC) of the same compound?
**A.** significant suppression; also recorded: suppressed by both dexamethasone and PACAP38 in a dose-dependent manner

**Q.** And the “reduction of p38 MAPK activation compared with SB202190 and dexamethasone” value ([2]; 10 nM PACAP38 vs 10 μM SB202190)?
**A.** comparable to reduction produced by 10 μM SB202190; also recorded: comparable to that of the specific p38 MAPK inhibitor itself; also recorded: significantly more effective at comparable doses

**Q.** What about the “reduction of LC-induced p38 MAPK activation” value ([2]; varying doses, 50 μM LC, 3 days) of the same compound?
**A.** suppressed activation of p38 MAPK; also recorded: reduced significantly, and in a dose-dependent manner; also recorded: suppressed p38 MAPK activation in a dose-dependent manner

**Q.** What about the “effect on LC-induced cell damage (FIG. 2C)” value ([7]; PACAP38 10 nM, LC 50 μM, 3 days) of the same compound?
**A.** dramatically attenuated

**Q.** And the “effect on LC-induced morphological changes (cell shrinkage, necrosis, loss of cell-cell adhesion) and survival” value ([7]; PACAP38 10^−9 M, LC 50 μM, 3 days)?
**A.** prevented the LC-induced changes; also recorded: dramatic preservation of renal tubule cell survival and morphology

**Q.** And the “cell morphology with compound alone” value ([7]; PACAP38 alone, 10^−9 M, no LC)?
**A.** did not cause any alteration of cell morphology; also recorded: did not alter the human renal tubule cell morphology

**Q.** Which “binding to PAC1-R” value [8] does the source give for vasoactive intestinal peptide [VIP] here?
**A.** does not bind
